Assay [1] deals with Neuronal acetylcholine receptor subunit alpha-7 (Rattus norvegicus) (UniProt Q05941). The assay is described as follows: Agonist activity at rat alpha-7 nicotinic acetylcholine receptor expressed in Xenopus oocytes assessed as ratio of maximum response to compound to that induced by 1 mM acetylcholine at 1 mM treated for 3 to 4 secs followed by compound washout for 4 mins by two-electrode voltage-clamp electrophysiology assay. The format is cell-based.

The target of assay [2] is T1, Neuronal acetylcholine receptor subunit alpha-7 (Rattus norvegicus, UniProt Q05941). The experiment in a line: Antagonist activity at rat alpha-7 nicotinic acetylcholine receptor expressed in Xenopus oocytes assessed as inhibition of acetylcholine-induced currents preincubated for 10 mins followed by nicotine induction by two-electrode voltage-clamp electrophysiology assay. The format is cell-based. For orientation: Two-electrode voltage clamp holds a large cell at a set potential and records current.

The target of assay [3] is Neuronal acetylcholine receptor subunit alpha-7 (Rattus norvegicus) (UniProt Q05941). The assay is described as follows: Antagonist activity at rat alpha-7 nicotinic acetylcholine receptor expressed in Xenopus oocytes assessed as inhibition of nicotine-induced current amplitudes at IC50 for acetylcholine-induced currents preincubated for 10 mins followed by nicotine induction by two-electrode voltage-clamp electrophysiology assay relative to control. It is filed as cell-based.

Assay [4] addresses T1, Neuronal acetylcholine receptor subunit alpha-7.
The target in assay [5] is Neuronal acetylcholine receptor subunit alpha-7 (Rattus norvegicus) (UniProt Q05941).

Active and inactive are the calls of the source. The calls are words filed in the database; no cut-off is given here.

T1 sequence (Q05941 whole entry): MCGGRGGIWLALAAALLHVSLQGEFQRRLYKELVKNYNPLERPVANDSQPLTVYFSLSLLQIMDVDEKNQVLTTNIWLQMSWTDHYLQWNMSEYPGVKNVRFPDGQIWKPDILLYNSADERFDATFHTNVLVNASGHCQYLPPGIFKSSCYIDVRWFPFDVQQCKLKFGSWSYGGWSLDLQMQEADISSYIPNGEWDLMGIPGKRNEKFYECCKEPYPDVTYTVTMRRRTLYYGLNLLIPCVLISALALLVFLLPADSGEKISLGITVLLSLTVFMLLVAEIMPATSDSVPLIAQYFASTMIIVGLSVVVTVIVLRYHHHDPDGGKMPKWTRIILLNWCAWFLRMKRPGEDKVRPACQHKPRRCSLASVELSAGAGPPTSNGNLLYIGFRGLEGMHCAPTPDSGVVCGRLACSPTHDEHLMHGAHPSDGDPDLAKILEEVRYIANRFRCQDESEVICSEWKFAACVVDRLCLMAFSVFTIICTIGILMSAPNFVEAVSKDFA
Sequence of Neuronal acetylcholine receptor subunit alpha-7 (Rattus norvegicus) (Q05941 whole entry): as above

On to `O=C(N[C@H]1C[N+]2(CCl)CCC1CC2)c1ccccc1F`, for which, in assay [1], the Ratio came out at 0.021. Moreover, the IC50 in assay [2] amounted to 28.4 µM. In addition, in assay [3], the inhibition worked out at 65.7%.

On to `O=C(NC1CN2CCC1CC2)c1ccccc1F` (stereo not drawn), for which, in assay [1], the Ratio amounted to 0.19. Moreover, the IC50 in assay [2] stood at 8.07 µM. Also, the inhibition in assay [3] was 26.5%. Moreover, a half-maximal response in assay [4] (EC50) required 56.5 µM.

Turning to `COc1cc(N)c(Cl)cc1C(=O)NC1CN2CCC1CC2` (stereo not drawn) [ZACOPRIDE], the Ratio in assay [1] is 0.038. Moreover, in assay [2], the IC50 amounted to 7.04 µM. Moreover, the inhibition in assay [3] came to 4.37%.

In the case of `O=C(N[C@@H]1C[N+]2(CCl)CCC1CC2)c1ccccc1F`, the IC50 in assay [2] is 39.3 µM. In addition, the inhibition in assay [3] stood at 33.2%. Further, the pEC50 result in assay [5] was “inactive”.

The IC50 is the midpoint of a concentration-inhibition curve. Usually inhibition stands for how much of the control response was suppressed. For orientation: EC50 means the concentration that produces a half-maximal response.

The values are drawn from ChEMBL document CHEMBL3600385 (Bioorg Med Chem Lett, 2015).
